In patent publication US20240116985A1, “STAPLED PEPTIDES AND METHODS THEREOF” (priority 2020, published 2024):

Test: CHI Log D procedure
Type: physicochemical

CHI Log D (pH 7.4)	SMILES	other results
2.03	CC(=O)N1CCC[C@]12CC=CCCCC1(CCCC=CCCCCCC[C@@](C)(C(=O)N[C@@H](Cc3ccccc3)C(=O)N[C@@H](Cc3c[nH]c4ccccc34)C(=O)N[C@@H](CCC(N)=O)C(N)=O)NC(=O)[C@H](C(C)C)NC(=O)[C@H](Cc3cccc(Cl)c3)NC(=O)[C@H](C)NC(=O)[C@H](C)NC(=O)[C@H](CC(=O)O)NC(=O)[C@H](CC(=O)O)NC1=O)NC(=O)[C@H](C)NC(=O)[C@H](CC(=O)O)NC2=O (stereo partly drawn) [I-306, Ac-PL3-Asp-Ala-B5-Asp-Asp-Ala-Ala-3C1F-Val-S8-Phe-Trp-Gln-NH2]	
2.03	CC(=O)N1CCC[C@]12CC=CCCCC1(CCCC=CCCCCCC[C@@](C)(C(=O)N[C@@H](Cc3ccccc3)C(=O)N[C@@H](Cc3c[nH]c4ccccc34)C(=O)N[C@@H](CCC(N)=O)C(N)=O)NC(=O)[C@H](C(C)C)NC(=O)[C@H](Cc3ccc(Cl)cc3)NC(=O)[C@H](C)NC(=O)[C@H](C)NC(=O)[C@H](CC(=O)O)NC(=O)[C@H](CC(=O)O)NC1=O)NC(=O)[C@H](C)NC(=O)[C@H](CC(=O)O)NC2=O (stereo partly drawn) [I-308, Ac-PL3-Asp-Ala-B5-Asp-Asp-Ala-Ala-4C1F-Val-S8-Phe-Trp-Gln-NH2]	
2.16	CC[C@H](C)[C@@H]1NC(=O)C[C@H](CC(=O)O)NC(=O)[C@]2(CC=CCCCC3(CCCC=CCCCCCC[C@@](C)(C(=O)N[C@@H](Cc4ccccc4)C(=O)N[C@@H](Cc4csc5ccccc45)C(=O)N[C@@H](CCC(N)=O)C(N)=O)NC(=O)[C@H](CCC(N)=O)NC(=O)[C@H](Cc4ccccc4)NC(=O)[C@H](C)NC(=O)[C@H](C)NC(=O)[C@H](CCC(=O)O)NC(=O)[C@H](CC(=O)O)NC3=O)NC1=O)CCCN2C(C)=O (stereo partly drawn) [I-670, Ac-PL3-RbGlu-Ile-B5-Asp-Glu-Ala-Ala-Phe-Gln-S8-Phe-BztA-Gln-NH2]	
2.035	CC(=O)N1CCC[C@]12CC=CCCCC1(CCCC=CCCCOC(=O)N3CC[C@@](C(=O)N[C@@H](Cc4ccsc4)C(=O)N[C@@H](Cc4csc5ccccc45)C(=O)N[C@@H](CCC(N)=O)C(N)=O)(C3)NC(=O)[C@H](CC(N)=O)NC(=O)[C@H](Cc3ccccc3)NC(=O)[C@H](C)NC(=O)[C@H](C)NC(=O)[C@H](CC(=O)O)NC(=O)[C@H](CC(=O)O)NC1=O)NC(=O)[C@H](CC(C)(C)C)NC(=O)[C@H](CC(=O)O)NC2=O (stereo partly drawn) [I-687, Ac-PL3-Asp-Npg-B5-Asp-Asp-Ala-Ala-Phe-Asn-PyrS2-3Thi-BztA-Gln-NH2]	logD (pH 7.4): 2.0

The remaining lines, values behind:

SMILES	CHI Log D (pH 7.4)	other results
CC(=O)N1CCC[C@]12CC=CCCCC1(CCCC=CCCCCCC[C@@](C)(C(=O)N[C@@H](Cc3ccccc3)C(=O)N[C@@H](Cc3csc4ccccc34)C(=O)N[C@@H](CCC(N)=O)C(N)=O)NC(=O)[C@H](C(C)C)NC(=O)[C@H](Cc3ccccc3)NC(=O)[C@H](C)NC(=O)[C@H](C)NC(=O)[C@H](CCc3ccccc3)NC(=O)[C@H](CC(=O)O)NC1=O)NC(=O)[C@H](C)NC(=O)[C@H](CC(=O)O)NC2=O (stereo partly drawn) [I-301, Ac-PL3-Asp-Ala-B5-Asp-hPhe-Ala-Ala-Phe-Val-S8-Phe-BztA-Gln-NH2]		chromatographic logD (pH 7.4, CHI Log D): 3.26
CC(=O)N1CCC[C@]12CC=CCCCC1(CCCC=CCCCCCC[C@@](C)(C(=O)N[C@@H](Cc3c(F)c(F)c(F)c(F)c3F)C(=O)N[C@@H](Cc3csc4ccccc34)C(=O)N[C@@H](CCC(N)=O)C(N)=O)NC(=O)[C@H](C(C)C)NC(=O)[C@H](Cc3ccccc3)NC(=O)[C@H](C)NC(=O)[C@H](C)NC(=O)[C@H](CC(=O)O)NC(=O)[C@H](CC(=O)O)NC1=O)NC(=O)[C@H](C)NC(=O)[C@H](CC(=O)O)NC2=O (stereo partly drawn) [I-302, Ac-PL3-Asp-Ala-B5-Asp-Asp-Ala-Ala-Phe-Val-S8-pff-BztA-Gln-NH2]		chromatographic logD (pH 7.4, CHI Log D): 2.38
CC(=O)N1CCC[C@]12CC=CCCCC1(CCCC=CCCCCCC[C@@](C)(C(=O)N[C@@H](Cc3ccccc3)C(=O)N[C@@H](Cc3c[nH]c4ccccc34)C(=O)N[C@@H](CCC(N)=O)C(N)=O)NC(=O)[C@H](C(C)C)NC(=O)[C@H](Cc3ccccc3)NC(=O)[C@H](C)NC(=O)[C@H](C)NC(=O)[C@H](C(c3ccccc3)c3ccccc3)NC(=O)[C@H](CC(=O)O)NC1=O)NC(=O)[C@H](C)NC(=O)[C@H](CC(=O)O)NC2=O (stereo partly drawn) [I-303, Ac-PL3-Asp-Ala-B5-Asp-DipA-Ala-Ala-Phe-Val-S8-Phe-Trp-Gln-NH2]		chromatographic logD (pH 7.4, CHI Log D): 3.13
CC(=O)N1CCC[C@]12CC=CCCCC1(CCCC=CCCCCCC[C@@](C)(C(=O)N[C@@H](Cc3ccccc3)C(=O)N[C@@H](Cc3c[nH]c4ccccc34)C(=O)N[C@@H](CCC(N)=O)C(N)=O)NC(=O)[C@H](C(C)C)NC(=O)[C@H](Cc3ccccc3)NC(=O)[C@H](C)NC(=O)[C@H](C)NC(=O)[C@H](Cc3c[nH]cn3)NC(=O)[C@H](CC(=O)O)NC1=O)NC(=O)[C@H](C)NC(=O)[C@H](CC(=O)O)NC2=O (stereo partly drawn) [I-304, Ac-PL3-Asp-Ala-B5-Asp-His-Ala-Ala-Phe-Val-S8-Phe-Trp-Gln-NH2]	2.339	
CC(=O)N1CCC[C@]12CC=CCCCC1(CCCC=CCCCCCC[C@@](C)(C(=O)N[C@@H](Cc3ccccc3)C(=O)N[C@@H](Cc3c[nH]c4ccccc34)C(=O)N[C@@H](CO)C(N)=O)NC(=O)[C@H](CO)NC(=O)[C@H](Cc3ccccc3)NC(=O)[C@H](C)NC(=O)[C@H](C)NC(=O)[C@H](CC(=O)O)NC(=O)[C@H](CC(=O)O)NC1=O)NC(=O)[C@H](C)NC(=O)[C@H](CC(=O)O)NC2=O (stereo partly drawn) [I-333, Ac-PL3-Asp-Ala-B5-Asp-Asp-Ala-Ala-Phe-Ser-S8-Phe-WCHO-Ser-NH2]		logD (pH 7.4, CHI Log D): 2.12
CC[C@H](C)[C@@H]1NC(=O)[C@H](CC(=O)O)NC(=O)[C@]2(CC=CCCCC3(CCCC=CCCCCCC[C@@](C)(C(=O)N[C@@H](Cc4ccccc4)C(=O)N[C@@H](Cc4csc5ccccc45)C(=O)N[C@@H](CCC(N)=O)C(N)=O)NC(=O)[C@H](CCC(N)=O)NC(=O)[C@H](Cc4ccccc4)NC(=O)[C@H](C)NC(=O)[C@H](C)NC(=O)[C@H](CCC(=O)O)NC(=O)[C@H](CNS(=O)(=O)C(F)(F)F)NC3=O)NC1=O)CCCN2C(C)=O (stereo partly drawn) [I-630, Ac-PL3-Asp-Ile-B5-[Tf]Dap-Glu-Ala-Ala-Phe-Gln-S8-Phe-BztA-Gln-NH2]	4.36	
CC[C@H](C)[C@@H]1NC(=O)[C@H](CC(=O)O)NC(=O)[C@]2(CC=CCCCC3(CCCC=CCCCCCC[C@@](C)(C(=O)N[C@@H](Cc4ccccc4)C(=O)N[C@@H](Cc4csc5ccccc45)C(=O)N[C@@H](CCC(N)=O)C(N)=O)NC(=O)[C@H](CCC(N)=O)NC(=O)[C@H](Cc4ccccc4)NC(=O)[C@H](C)NC(=O)[C@H](C)NC(=O)[C@H](CCC(=O)O)NC(=O)[C@H](CNS(=O)(=O)C(F)(F)F)NC3=O)NC1=O)CCCN2C(C)=O (stereo partly drawn) [I-631, Ac-PL3-Asp-Ile-B5-[Tf]Dap-Glu-Ala-Ala-Phe-Gln-S8-Phe-BztA-Gln-NH2]	4.365	
CC(=O)N1CCC[C@]12CC=CCCCC1(CCCC=CCCCCCC[C@@](C)(C(=O)N[C@@H](Cc3ccccc3)C(=O)N[C@@H](Cc3csc4ccccc34)C(=O)N(C)[C@@H](Cc3cnc[nH]3)C(N)=O)NC(=O)[C@H](CC(N)=O)NC(=O)[C@H](Cc3ccccc3)NC(=O)[C@H](C)NC(=O)[C@H](C)NC(=O)[C@H](CCC(=O)O)NC(=O)[C@H](CC(=O)O)NC1=O)NC(=O)[C@H](CC(C)C)NC(=O)[C@H](CC(=O)O)NC2=O (stereo partly drawn) [I-746, Ac-PL3-Asp-Leu-B5-Asp-Glu-Ala-Ala-Phe-Asn-S8-Phe-BztA-NMeHis-NH2]	2.372	
